Laboratory results published in ChEMBL document CHEMBL4804286, “3-amino-4-(4-(4 (dimethylcarbamoyl) phenyl)-1,4-diazepan-1-yl) thieno [2,3-b] pyridine-2-carboxamide for use in cancer therapy and formulations comprising the same” (2020).
“And” between values parts separate entries of the source, which are not always exact repeats. Equal values may be shown once.

Assays:
Parameters in all cases: scale not given: the % may be the effect or the level left
[1] = tested on: Tyrosine-protein kinase ABL1 (Homo sapiens), P00519 [E255K]; assay: Inhibition of phosphorylated human ABL1 E255K mutant assessed as percent of control at 2000 nM by KINOMEscan assay relative to control
Sequence of Tyrosine-protein kinase ABL1 (Homo sapiens), P00519 [E255K] (P00519 whole entry E255K): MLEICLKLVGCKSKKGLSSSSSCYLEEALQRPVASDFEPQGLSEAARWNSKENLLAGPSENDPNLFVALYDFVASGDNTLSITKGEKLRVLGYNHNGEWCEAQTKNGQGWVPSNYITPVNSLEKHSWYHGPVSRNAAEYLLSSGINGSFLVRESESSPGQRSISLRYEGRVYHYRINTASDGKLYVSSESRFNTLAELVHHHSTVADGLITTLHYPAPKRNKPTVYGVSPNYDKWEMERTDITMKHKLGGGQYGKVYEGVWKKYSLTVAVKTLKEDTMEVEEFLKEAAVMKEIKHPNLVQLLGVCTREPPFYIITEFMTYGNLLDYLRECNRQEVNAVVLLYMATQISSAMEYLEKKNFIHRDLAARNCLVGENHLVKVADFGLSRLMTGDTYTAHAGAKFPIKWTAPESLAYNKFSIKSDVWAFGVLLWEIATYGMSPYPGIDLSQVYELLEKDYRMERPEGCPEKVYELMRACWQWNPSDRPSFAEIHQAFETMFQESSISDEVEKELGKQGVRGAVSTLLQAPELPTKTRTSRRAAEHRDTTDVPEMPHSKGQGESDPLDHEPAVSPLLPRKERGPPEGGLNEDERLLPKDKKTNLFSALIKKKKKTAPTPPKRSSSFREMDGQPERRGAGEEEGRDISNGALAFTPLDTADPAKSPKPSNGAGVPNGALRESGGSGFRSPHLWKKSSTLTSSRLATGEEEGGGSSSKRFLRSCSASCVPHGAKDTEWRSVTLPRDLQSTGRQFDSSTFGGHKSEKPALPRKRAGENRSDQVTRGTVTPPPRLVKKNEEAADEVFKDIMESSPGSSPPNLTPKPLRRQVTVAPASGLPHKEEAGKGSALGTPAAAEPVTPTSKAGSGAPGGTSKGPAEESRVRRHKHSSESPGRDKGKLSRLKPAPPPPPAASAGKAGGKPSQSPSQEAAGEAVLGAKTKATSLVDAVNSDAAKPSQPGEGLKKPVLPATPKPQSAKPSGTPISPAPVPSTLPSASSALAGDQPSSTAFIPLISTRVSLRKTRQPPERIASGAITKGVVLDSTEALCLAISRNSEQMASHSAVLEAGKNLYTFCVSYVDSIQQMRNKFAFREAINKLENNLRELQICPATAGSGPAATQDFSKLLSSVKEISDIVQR

[2] = tested on: Tyrosine-protein kinase ABL1 (Homo sapiens), P00519 [F317L]; assay: Inhibition of non-phosphorylated human ABL1 F317L mutant assessed as percent of control at 2000 nM by KINOMEscan assay relative to control
Sequence of Tyrosine-protein kinase ABL1 (Homo sapiens), P00519 [F317L] (P00519 whole entry F317L): as the sequence (P00519 whole entry E255K) above, with K255E, F317L counted along it

[3] = biological target: Activin receptor type-1 (Homo sapiens) (UniProt Q04771); assay: Inhibition of human ACVR1 assessed as percent of control at 2000 nM by KINOMEscan assay relative to control
[4] = biological target: Calcium/calmodulin-dependent protein kinase type IV (Homo sapiens) (UniProt Q16566); assay: Inhibition of human CAMK4 assessed as percent of control at 2000 nM by KINOMEscan assay relative to control
Sequence of Calcium/calmodulin-dependent protein kinase type IV (Homo sapiens) (Q16566 whole entry): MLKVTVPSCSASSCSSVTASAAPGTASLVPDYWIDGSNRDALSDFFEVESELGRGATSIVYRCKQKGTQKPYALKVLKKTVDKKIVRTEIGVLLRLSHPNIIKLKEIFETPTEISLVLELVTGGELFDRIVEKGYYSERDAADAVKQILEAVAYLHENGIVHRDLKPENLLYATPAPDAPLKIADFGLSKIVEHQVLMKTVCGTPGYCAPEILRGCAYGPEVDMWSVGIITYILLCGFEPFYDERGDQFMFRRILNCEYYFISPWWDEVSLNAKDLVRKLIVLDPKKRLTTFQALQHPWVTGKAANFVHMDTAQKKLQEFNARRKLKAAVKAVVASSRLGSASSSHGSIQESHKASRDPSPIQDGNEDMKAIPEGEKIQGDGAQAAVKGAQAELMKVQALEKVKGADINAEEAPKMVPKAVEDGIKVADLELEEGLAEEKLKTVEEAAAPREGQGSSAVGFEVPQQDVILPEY

[5] = biological target: Cyclin-dependent kinase 3 (Homo sapiens) (UniProt Q00526); assay: Inhibition of human CDK3 assessed as percent of control at 2000 nM by KINOMEscan assay relative to control
[6] = biological target: Cyclin-dependent kinase-like 2 (Homo sapiens) (UniProt Q92772); assay: Inhibition of human CDKL2 assessed as percent of control at 2000 nM by KINOMEscan assay relative to control
[7] = biological target: Macrophage colony-stimulating factor 1 receptor (Homo sapiens) (UniProt P07333); assay: Inhibition of human CSF1R assessed as percent of control at 2000 nM by KINOMEscan assay relative to control
[8] = biological target: Casein kinase I isoform alpha (Homo sapiens) (UniProt P48729); assay: Inhibition of human CSNK1A1 assessed as percent of control at 2000 nM by KINOMEscan assay relative to control; settings: INHIBITOR
[9] = biological target: Casein kinase II subunit alpha' (Homo sapiens) (UniProt P19784); assay: Inhibition of human CSNK2A2 assessed as percent of control at 2000 nM by KINOMEscan assay relative to control
[10] = biological target: Serine/threonine-protein kinase DCLK2 (Homo sapiens) (UniProt Q8N568); assay: Inhibition of human DCAMKL2 assessed as percent of control at 2000 nM by KINOMEscan assay relative to control
Sequence of Serine/threonine-protein kinase DCLK2 (Homo sapiens) (Q8N568 whole entry): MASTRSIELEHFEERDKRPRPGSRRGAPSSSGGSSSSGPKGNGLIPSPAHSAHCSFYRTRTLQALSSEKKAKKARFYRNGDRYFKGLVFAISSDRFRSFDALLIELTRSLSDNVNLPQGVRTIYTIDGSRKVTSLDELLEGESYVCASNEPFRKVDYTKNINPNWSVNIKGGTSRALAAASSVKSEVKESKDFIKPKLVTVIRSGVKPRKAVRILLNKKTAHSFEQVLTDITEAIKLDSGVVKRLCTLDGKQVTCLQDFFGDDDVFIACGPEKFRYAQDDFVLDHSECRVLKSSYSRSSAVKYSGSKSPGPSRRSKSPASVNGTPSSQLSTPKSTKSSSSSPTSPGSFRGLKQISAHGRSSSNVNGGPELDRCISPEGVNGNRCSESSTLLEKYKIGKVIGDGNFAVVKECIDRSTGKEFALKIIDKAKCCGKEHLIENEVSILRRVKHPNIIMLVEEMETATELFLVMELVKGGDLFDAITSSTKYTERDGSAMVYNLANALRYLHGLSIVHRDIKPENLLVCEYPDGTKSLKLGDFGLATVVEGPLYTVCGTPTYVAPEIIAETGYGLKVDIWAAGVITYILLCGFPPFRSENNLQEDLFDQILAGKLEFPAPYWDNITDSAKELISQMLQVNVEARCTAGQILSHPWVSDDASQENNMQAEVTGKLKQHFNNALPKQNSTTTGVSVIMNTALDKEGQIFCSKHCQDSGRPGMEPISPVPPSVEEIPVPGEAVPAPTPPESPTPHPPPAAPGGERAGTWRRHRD

[11] = biological target: Eukaryotic translation initiation factor 2-alpha kinase 1 (Homo sapiens) (UniProt Q9BQI3); assay: Inhibition of human EIF2AK1 assessed as percent of control at 2000 nM by KINOMEscan assay relative to control
[12] = biological target: Focal adhesion kinase 1 (Homo sapiens) (UniProt Q05397); assay: Inhibition of human FAK assessed as percent of control at 2000 nM by KINOMEscan assay relative to control
[13] = biological target: Tyrosine-protein kinase ITK/TSK (Homo sapiens) (UniProt Q08881); assay: Inhibition of human ITK assessed as percent of control at 2000 nM by KINOMEscan assay relative to control
[14] = biological target: Mast/stem cell growth factor receptor Kit (Homo sapiens) (UniProt P10721); assay: Inhibition of human KIT assessed as percent of control at 2000 nM by KINOMEscan assay relative to control
[15] = tested on: Mast/stem cell growth factor receptor Kit (Homo sapiens), P10721 [V559D,V654A]; assay: Inhibition of human KIT V559D/V654A double mutant assessed as percent of control at 2000 nM by KINOMEscan assay relative to control
[16] = biological target: Serine/threonine-protein kinase 10 (Homo sapiens) (UniProt O94804); assay: Inhibition of human LOK assessed as percent of control at 2000 nM by KINOMEscan assay relative to control
[17] = biological target: Dual specificity mitogen-activated protein kinase kinase 6 (Homo sapiens) (UniProt P52564); assay: Inhibition of human MEK6 assessed as percent of control at 2000 nM by KINOMEscan assay relative to control
Sequence of Dual specificity mitogen-activated protein kinase kinase 6 (Homo sapiens) (P52564 whole entry): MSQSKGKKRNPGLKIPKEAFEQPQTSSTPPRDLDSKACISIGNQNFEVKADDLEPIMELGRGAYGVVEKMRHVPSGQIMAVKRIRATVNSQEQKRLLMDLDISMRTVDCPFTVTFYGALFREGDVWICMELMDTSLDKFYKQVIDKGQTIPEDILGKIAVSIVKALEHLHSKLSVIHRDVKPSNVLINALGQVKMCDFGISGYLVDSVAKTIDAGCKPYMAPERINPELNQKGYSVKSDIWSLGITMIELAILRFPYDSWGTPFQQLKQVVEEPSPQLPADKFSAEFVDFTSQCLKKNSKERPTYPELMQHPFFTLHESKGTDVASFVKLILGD

[18] = biological target: Hepatocyte growth factor receptor (Homo sapiens) (UniProt P08581); assay: Inhibition of human MET assessed as percent of control at 2000 nM by KINOMEscan assay relative to control
[19] = biological target: Macrophage-stimulating protein receptor (Homo sapiens) (UniProt Q04912); assay: Inhibition of human MST1R assessed as percent of control at 2000 nM by KINOMEscan assay relative to control
Sequence of Macrophage-stimulating protein receptor (Homo sapiens) (Q04912 25-304 limits assumed): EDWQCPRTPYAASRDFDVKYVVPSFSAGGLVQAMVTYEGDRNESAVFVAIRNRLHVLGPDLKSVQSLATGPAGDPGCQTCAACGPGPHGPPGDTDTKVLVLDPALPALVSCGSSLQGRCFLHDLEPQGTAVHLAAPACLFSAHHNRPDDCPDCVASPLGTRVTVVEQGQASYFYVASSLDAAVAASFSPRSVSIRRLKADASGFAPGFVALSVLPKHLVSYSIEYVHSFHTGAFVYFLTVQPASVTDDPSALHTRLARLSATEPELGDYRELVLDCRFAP
Sequence of Macrophage-stimulating protein receptor (Homo sapiens) (Q04912 310-1400 limits assumed): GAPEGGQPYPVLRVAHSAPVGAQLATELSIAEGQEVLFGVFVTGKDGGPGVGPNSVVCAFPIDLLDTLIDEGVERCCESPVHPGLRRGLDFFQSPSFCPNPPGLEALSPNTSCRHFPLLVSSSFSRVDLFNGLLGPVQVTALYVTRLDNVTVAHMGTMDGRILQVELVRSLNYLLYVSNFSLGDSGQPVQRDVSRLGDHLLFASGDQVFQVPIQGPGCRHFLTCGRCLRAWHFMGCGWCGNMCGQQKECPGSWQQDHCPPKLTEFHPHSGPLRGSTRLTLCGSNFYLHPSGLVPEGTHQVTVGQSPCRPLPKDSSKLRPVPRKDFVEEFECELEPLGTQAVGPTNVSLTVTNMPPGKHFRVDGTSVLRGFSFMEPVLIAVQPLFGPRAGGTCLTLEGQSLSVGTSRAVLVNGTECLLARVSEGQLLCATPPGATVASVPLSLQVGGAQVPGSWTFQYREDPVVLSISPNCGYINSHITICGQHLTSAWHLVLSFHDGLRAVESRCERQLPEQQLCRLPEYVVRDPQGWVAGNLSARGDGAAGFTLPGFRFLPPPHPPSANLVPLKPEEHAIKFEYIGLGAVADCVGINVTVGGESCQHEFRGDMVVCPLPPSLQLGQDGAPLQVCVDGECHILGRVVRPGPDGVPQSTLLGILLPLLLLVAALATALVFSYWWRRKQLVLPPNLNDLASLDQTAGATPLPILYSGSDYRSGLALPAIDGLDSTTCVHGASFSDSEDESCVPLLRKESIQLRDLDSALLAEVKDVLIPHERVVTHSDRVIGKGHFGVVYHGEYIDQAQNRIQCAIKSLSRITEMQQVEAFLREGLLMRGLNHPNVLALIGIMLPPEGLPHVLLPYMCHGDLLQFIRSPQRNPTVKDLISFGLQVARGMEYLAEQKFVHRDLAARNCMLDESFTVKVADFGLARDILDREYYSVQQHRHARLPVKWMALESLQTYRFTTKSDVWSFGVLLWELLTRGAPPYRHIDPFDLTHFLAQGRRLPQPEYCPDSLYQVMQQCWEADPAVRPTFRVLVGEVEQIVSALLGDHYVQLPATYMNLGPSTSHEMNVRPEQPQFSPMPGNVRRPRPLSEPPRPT

[20] = biological target: Serine/threonine-protein kinase NLK (Homo sapiens) (UniProt Q9UBE8); assay: Inhibition of human NLK assessed as percent of control at 2000 nM by KINOMEscan assay relative to control
[21] = tested on: Phosphatidylinositol 4,5-bisphosphate 3-kinase catalytic subunit alpha isoform (Homo sapiens), P42336 [E545K]; assay: Inhibition of human PIK3CA E545K mutant assessed as percent of control at 2000 nM by KINOMEscan assay relative to control
[22] = biological target: Phosphatidylinositol 5-phosphate 4-kinase type-2 beta (Homo sapiens) (UniProt P78356); assay: Inhibition of human PIP5K2B assessed as percent of control at 2000 nM by KINOMEscan assay relative to control
[23] = biological target: cGMP-dependent protein kinase 2 (Homo sapiens) (UniProt Q13237); assay: Inhibition of human PRKG2 assessed as percent of control at 2000 nM by KINOMEscan assay relative to control
Sequence of cGMP-dependent protein kinase 2 (Homo sapiens) (Q13237 whole entry): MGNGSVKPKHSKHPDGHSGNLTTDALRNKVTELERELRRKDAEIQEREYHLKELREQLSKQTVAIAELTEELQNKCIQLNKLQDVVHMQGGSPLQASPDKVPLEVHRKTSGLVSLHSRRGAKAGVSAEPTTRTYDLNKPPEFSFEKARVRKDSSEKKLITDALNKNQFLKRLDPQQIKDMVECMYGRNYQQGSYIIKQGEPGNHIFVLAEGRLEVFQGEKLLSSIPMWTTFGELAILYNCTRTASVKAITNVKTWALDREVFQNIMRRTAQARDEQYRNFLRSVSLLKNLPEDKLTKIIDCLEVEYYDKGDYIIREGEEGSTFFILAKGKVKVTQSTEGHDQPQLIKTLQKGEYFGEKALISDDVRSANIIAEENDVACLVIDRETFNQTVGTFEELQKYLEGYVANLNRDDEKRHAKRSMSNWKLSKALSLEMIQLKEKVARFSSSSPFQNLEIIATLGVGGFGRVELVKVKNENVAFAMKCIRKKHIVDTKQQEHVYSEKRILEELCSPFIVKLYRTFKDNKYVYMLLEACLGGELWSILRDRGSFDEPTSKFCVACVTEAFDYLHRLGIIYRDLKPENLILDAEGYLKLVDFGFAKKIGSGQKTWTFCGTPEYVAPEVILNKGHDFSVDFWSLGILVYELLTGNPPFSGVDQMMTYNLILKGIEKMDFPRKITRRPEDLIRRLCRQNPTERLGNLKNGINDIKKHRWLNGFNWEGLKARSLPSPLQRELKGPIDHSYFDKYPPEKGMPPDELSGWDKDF

[24] = biological target: Serine/threonine-protein kinase RIO3 (Homo sapiens) (UniProt O14730); assay: Inhibition of human RIOK3 assessed as percent of control at 2000 nM by KINOMEscan assay relative to control
[25] = biological target: Receptor-interacting serine/threonine-protein kinase 4 (Homo sapiens) (UniProt P57078); assay: Inhibition of human RIPK4 assessed as percent of control at 2000 nM by KINOMEscan assay relative to control
[26] = biological target: Ribosomal protein S6 kinase alpha-1 (Homo sapiens) (UniProt Q15418); assay: Inhibition of human C-terminal RSK1 kinase domain 2 assessed as percent of control at 2000 nM by KINOMEscan assay relative to control
[27] = biological target: Ribosomal protein S6 kinase alpha-3 (Homo sapiens) (UniProt P51812); assay: Inhibition of human C-terminal RSK2 kinase domain 2 assessed as percent of control at 2000 nM by KINOMEscan assay relative to control
[28] = biological target: Serine/threonine-protein kinase 16 (Homo sapiens) (UniProt O75716); assay: Inhibition of human STK16 assessed as percent of control at 2000 nM by KINOMEscan assay relative to control
[29] = biological target: Serine/threonine-protein kinase 35 (Homo sapiens) (UniProt Q8TDR2); assay: Inhibition of human STK35 assessed as percent of control at 2000 nM by KINOMEscan assay relative to control
[30] = biological target: Serine/threonine-protein kinase ULK1 (Homo sapiens) (UniProt O75385); assay: Inhibition of human ULK1 assessed as percent of control at 2000 nM by KINOMEscan assay relative to control
[31] = biological target: Mitogen-activated protein kinase kinase kinase 20 (Homo sapiens) (UniProt Q9NYL2); assay: Inhibition of human ZAK assessed as percent of control at 2000 nM by KINOMEscan assay relative to control

Q: What does the source list for `CN(C)C(=O)c1ccc(N2CCCN(c3ccnc4sc(C(N)=O)c(N)c34)CC2)cc1`?
A: Activity [1]: 100% and 82%; Activity [2]: 99% and 100%; Activity [3]: 100%; Activity [4]: 96% and 79%; Activity [5]: 92% and 97%; Activity [6]: 86% and 96%; Activity [7]: 98% and 95%; Activity [8]: 33% and 12%; Activity [9]: 92% and 100%; Activity [10]: 100%; Activity [11]: 93% and 78%; Activity [12]: 100% and 96%; Activity [13]: 88% and 87%; Activity [14]: 95%; Activity [15]: 100%; Activity [16]: 84% and 69%; Activity [17]: 100% and 96%; Activity [18]: 99% and 92%; Activity [19]: 97% and 99%; Activity [20]: 98%; Activity [21]: 96% and 91%; Activity [22]: 92% and 95%; Activity [23]: 98% and 90%; Activity [24]: 100% and 95%; Activity [25]: 89% and 68%; Activity [26]: 100% and 86%; Activity [27]: 94% and 92%; Activity [28]: 80% and 87%; Activity [29]: 87% and 93%; Activity [30]: 96% and 72%; Activity [31]: 94% and 100%
